{"source": "patent US9119396B2", "about": "“Method for promoting plant growth” (SUMITOMO CHEMICAL COMPANY, LIMITED, priority 2011, dated 2015)", "key": {"[1]": {"system": "Rice (cultivar: Nipponbare)", "assay": "Test Example 4: reduction of low-temperature stress by immersion treatment of rice", "type": "in vivo", "conditions": "rice seedlings, immersion at 1 ppm for 2 days; low-temperature stress 4° C. 5 days, then 4 days at 25° C.", "method": "Evaluation Test for Reduction of Low-Temperature Stress by Immersion Treatment of Rice Rice (cultivar: Nipponbare) A necessary amount of rice seeds was immersed in an aqueous solution of 1,000 ppm of Benlate, and incubated at 30° C. overnight under dark conditions. The aqueous solution of Benlate was replaced with distilled water, and the seeds were further incubated at 30° C. overnight under dark conditions to stimulate the germination of the seeds. A filter paper was placed on the holes of a plug tray having 406 holes, and the rice seeds obtained after the stimulation of germination were sown on the filter paper. To the rice seeds was added a kimura B solution for hydroponics (see Plant Science 119: 39-47 (1996)) at ½ concentration, and cultivated for 5 days in an artificial weather control room under the following conditions: • temperature: 28° C. in daytime/23° C. in night, humidity: 70%, illuminance: 8,500 lux, and day length: 12 hours. <Compound Treatment> A DMSO solution of 1,000 ppm of the present compound 1 was prepared, and diluted with a kimura B solution for hydroponics at ½ concentration. The solution for hydroponics containing the compound was dispensed into the wells of a 24-well plate at 2 ml per well. […] In the treated group, the experiment was performed in duplication and the average value of the green area per individual was calculated. […]"}, "[2]": {"system": "Rice (cultivar: Nipponbare)", "assay": "Test Example 11: reduction of drought stress by treatment of rice seeds", "type": "in vivo", "conditions": "rice seed treatment, 100 g per 100 kg of seeds; drought stress 2 days, then 14 days cultivation", "method": "Evaluation Test for Reduction of Drought Stress by Treatment of Rice Seeds Rice (cultivar: Nipponbare) A blank slurry solution containing 5% (V/V) color coat red (Becker Underwood, Inc.), 5% (V/V) CF-Clear (Becker Underwood, Inc.) and 1% Maxim XL (Syngenta) was prepared. A slurry solution was prepared by dissolving the present compound 1 in the blank slurry solution such that 100 g of the compound is applied to each 100 kg of rice seeds. In a 50-ml centrifuge tube (manufactured by AGC TECHNO GLASS CO., LTD.), 0.3 ml of the slurry solution was placed for each 10 g of rice seeds and stirred until the solution was dried, thereby coating the seeds. In addition, seeds were coated with the blank slurry solution and used as seeds for a non-treated group. A filter paper was placed on the holes of a plug tray having 406 holes, and the rice seeds treated above were sown on the filter paper. […] Fourteen (14) days after the treatment, the fresh weight of the overground parts of five test plants in each treated group was measured. The experiment was performed in three replications in each treated group and the average value was calculated. […]"}}, "data": [{"smiles": "COC(=O)c1cc2cc(C(F)(F)F)ccc2s1", "note": "[compound 1]", "values": [{"measurement": "green area of the overground part of the plant vs non-treated group", "setting": "[1]", "value": "much larger"}, {"measurement": "fresh weight of the overground part of plants vs non-treated group", "setting": "[2]", "value": "much heavier"}]}]}
